{
  "source": "paper PMC5120204",
  "about": "“Identification of an orally active small-molecule PTHR1 agonist for the treatment of hypoparathyroidism” (Nature Communications, 2016)",
  "key": {"hPTHR1": {"biological_target": "T1, hPTHR1 (Homo sapiens, UniProt Q03431)", "T1 construct": "similar to that of cells expressing full-length hPTHR1; expressed in transfected cells; host or cells: COS-7 (transient, FuGENE HD)", "T1 sequence (Q03431 27-593 E93Y/D94P/K95Y/E96D/A97V/T99D/G100Y/S101A)": "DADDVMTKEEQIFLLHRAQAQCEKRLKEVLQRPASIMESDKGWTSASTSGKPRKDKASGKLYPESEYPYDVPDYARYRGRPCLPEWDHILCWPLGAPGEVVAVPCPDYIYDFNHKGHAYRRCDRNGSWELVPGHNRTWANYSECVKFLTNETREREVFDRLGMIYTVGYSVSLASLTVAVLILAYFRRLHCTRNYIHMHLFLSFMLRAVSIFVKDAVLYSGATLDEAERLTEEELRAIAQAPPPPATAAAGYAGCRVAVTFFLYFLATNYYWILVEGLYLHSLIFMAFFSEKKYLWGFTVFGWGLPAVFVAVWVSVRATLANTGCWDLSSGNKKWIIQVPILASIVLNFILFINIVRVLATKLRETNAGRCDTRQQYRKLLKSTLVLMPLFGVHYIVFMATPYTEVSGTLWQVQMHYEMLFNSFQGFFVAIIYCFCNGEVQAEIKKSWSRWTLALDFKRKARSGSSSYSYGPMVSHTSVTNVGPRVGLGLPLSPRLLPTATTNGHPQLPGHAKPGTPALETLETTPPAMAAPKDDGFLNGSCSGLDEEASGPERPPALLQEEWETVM", "experiment": "Receptor binding assay, competition with 125I-[Aib1,3,M]–PTH(1–15) on COS-7 membranes", "conditions": "at 100 μmol l^−1", "protocol": "COS-7 cells (ATCC) were seeded into 10-cm dishes (1.7 × 10^6 cells per dish) and incubated overnight. The next day, the COS-7 cells were transfected by adding 500 μl of a mixture of hPTHR1 plasmid (10 μg per dish), FuGENE HD Transfection Reagent (40 μl per dish, Promega) and Opti-MEM I Reduced Serum Medium (450 μl per well, Life Technologies) to each dish. On the third day after the cells were seeded into the dishes, the culture medium in the dishes was discarded, each dish was washed with 5 ml of Buffer A (10 mmol l^−1 Tris-HCl, pH 7.4/4 mmol l^−1 EDTA) without protease inhibitor cocktail (PI; Nacalai Tesque, Inc.), and then 750 μl of Buffer A (10 mmol l^−1 Tris-HCl, pH 7.4/4 mmol l^−1 EDTA/1 × PI) was added to each dish. […] The protein concentration was determined using Protein Assay Dye Reagent Concentrate (Bio-Rad Laboratories, Inc). […]\nThe binding of hPTH(1–34) and PCO371 free base to hPTHR1 was evaluated by competition assay using ^125I-[Aib^1,3,M]PTH(1–15) as the competing entity. […] The dried filter was recovered, and the ^125I radioactivity was measured using a gamma counter. […] Total ^125I count rates (cpm) measured by the gamma counter were used as the primary data. Binding to hPTHR1 was evaluated by calculating the per cent specific binding from the following formula using Microsoft Office Excel 2007.\nPercentage specific binding was calculated by the following formula: equation (1) […]"}, "UMR-106 cells": {"tested_on": "UMR-106 cells", "experiment": "Gene expression assay in UMR-106 cells", "assay_type": "cell-based, rat", "protocol": "UMR-106 cells (ATCC) were incubated with DMEM with 0.2% BSA for 4 h and were then treated with hPTH(1–34) or PCO371 for 1 or 6 h. At 1 or 6 h after adding test compounds, total RNA was isolated by using an RNeasy Plus Kit (Qiagen). cDNA was transcribed from the isolated total RNA by using TaqMan Reverse Transcription Reagents (Thermo Fisher Scientific). mRNA levels were quantified by a real-time PCR system (Thermo Fisher Scientific). The relative quantity of transcripts was calculated by using the comparative threshold cycle (Ct) method and normalized to 18S ribosomal RNA as an internal control. The following cDNA-specific primers and probes were used: Fos (encoded by Fos, Rn02396759_m1), osteocalcin (encoded by Bglap, Rn00566386_g1), receptor activator of nuclear factor-κB ligand (RANKL, encoded by Tnfsf11, Rn00589289_m1), osteoprotegerin (osteoprotegerin, encoded by Tnfrsf11b, Rn00563499_m1) and sclerostin (encoded by Sost, Rn00577971_m1)."}},
  "data": [
    {"compound": "Cc1cc(N2C(=O)NC(=O)C2(C)C)cc(C)c1CCS(=O)(=O)N1CCC2(CC1)N=C(c1ccc(OC(F)(F)F)cc1)NC2=O", "note": "[PCO371, 1-{3,5-dimethyl-4-[2-({4-oxo-2-[4-(trifluoromethoxy)phenyl]-1,3,8-triazaspiro[4.5]dec-1-en-8-yl}sulfonyl)ethyl]phenyl}-5,5-dimethylimidazolidine-2,4-dione]", "values": [
      {"measurement": "inhibition of the binding of 125I-[Aib1,3,M]–PTH(1–15)", "setting": "hPTHR1", "result": "almost completely"},
      {"measurement": "expression of mRNAs for Fos, osteocalcin and RANKL", "setting": "UMR-106 cells; 1 h (Fos) or 6 h", "result": "dose-dependently increased"},
      {"measurement": "expression of mRNAs for osteoprotegerin and sclerostin", "setting": "UMR-106 cells; 6 h", "result": "dose-dependently decreased"}
    ]}
  ]
}
